The values below come from patent US11707479B2, “Combination formulation of two antiviral compounds” (priority 2013, dated 2023).

The nature of series [1]: PK drug-drug interaction between SOF and Compound I. The class given is in vivo, human. Particulars: for AUCinf % GLSM Ratio (SOF + Compound I/SOF) (90% CI) / AUClast % GLSM Ratio (SOF + Compound I/SOF) (90% CI) / Cmax % GLSM Ratio (SOF + Compound I/SOF) (90% CI): SOF 400 mg + Compound I 150 mg vs SOF 400 mg.
The test system of series [2] is HCV RNA. Briefly: Emax PK/PD modeling of sofosbuvir dose. Set-up: species or system Hepatitis C virus. The following applies: 400 mg sofosbuvir dose, Emax model. As to the method:
The sofosbuvir dose selected for the tablet formulation is 400 mg once daily. Support for the 400 mg sofosbuvir dose can be derived from Emax PK/PD modeling with early virological and human exposure data which also supports the selection of a 400 mg sofosbuvir dose over others tested.
(§1) The mean sofosbuvir major metabolite AUCtau for the 400 mg sofosbuvir dose is associated with approximately 77% of the maximal HCV RNA change from baseline achievable as determined by this model, a value which is on the cusp of the plateau of the exposure-response sigmoidal curve. In a sigmoidal Emax model, there is a relatively linear exposure-response relationship in the 20 to 80% maximal effect range. Therefore, given that sofosbuvir exposure with 200 mg tablets appears dose-proportional with single doses up to 1200 mg, doses below 400 mg are expected to yield considerable reductions in the magnitude of HCV RNA change from baseline.

A short description of series [3]: Sofosbuvir single dose exposure, 200 mg tablets. The format is in vivo, human. Particulars: single doses up to 1200 mg. As to the method: as §1
The test system of series [4] is genotype 1 HCV. Briefly: Sofosbuvir 400 mg vs 200 mg once daily with additional HCV therapeutics for 24 weeks. The class given is in vivo, Hepatitis C virus. As to the method:
(§2) Safety and tolerability appeared similar across both dose levels. In addition, when sofosbuvir 400 mg once daily plus other HCV therapeutics were given to genotype 2 or 3 HCV infected patients, 100% SVR24 was observed.

Series [5] concerns genotype 2 or 3 HCV. In words: Sofosbuvir 400 mg once daily plus other HCV therapeutics, SVR24. The class given is in vivo, Hepatitis C virus. Particulars: genotype 2 or 3 HCV infected patients. The method, then: as §2
Series [6] can be described thus: Single and multiple oral doses of Compound I: pharmacokinetics. Particulars: human, in vivo.
Series [7] can be described thus: Food effect on Compound I solid dispersion as single agent. The class given is in vivo, human. The following applies: Compound I 100 mg.
In series [8] the test system is genotype 1-6 HCV. In words: Compound I 3-day monotherapy study. The format is in vivo, Hepatitis C virus.
A short description of series [9]: Spray dry feed solution solvent evaluation: solubility. The class given is physicochemical. The following applies: Ethanol, methanol, acetone, and dichloromethane. As to the method:
The feed solution was initially evaluated for appropriate solvent with regard to solubility, stability, and viscosity. […] Ethanol and methanol-based feed stocks were assessed for preparation ease and spray dried at a range of inlet and outlet temperatures to assess the robustness of the spray dry process. Both solvents gave rapid dissolution of Compound I and copovidone.

Series [10] is described as follows: Chemical stability in ethanolic feed solution. The class given is physicochemical.
The mark [11] stands for this setting: SOF 400 mg single dose alone, GLSM.
Setting [12] is: human, in vivo, SOF 400 mg + Compound I 150 mg, GLSM.
The mark [13] stands for this setting: SOF 400 mg + Compound I 150 mg, GLSM.
Where [14] appears, read: SOF 400 mg + Compound I 150 mg vs Compound I 150 mg.

The structures appear in SMILES notation. Like-named read-outs stand apart in the source and are kept apart here.

What is called AUC(0-inf) is total exposure, with the tail of the curve extrapolated. As a reminder, the AUC(0-t) is exposure summed from dosing to a finite time, without extrapolation to infinity. A word on the Cmax: it is the highest concentration seen after dosing. For the molecule `CC(C)OC(=O)[C@H](C)N[P@](=O)(OC[C@H]1O[C@@H](n2ccc(=O)[nH]c2=O)[C@](C)(F)[C@@H]1O)Oc1ccccc1` [sofosbuvir, (S)-isopropyl 2-(((S)-(((2R,3R,4R,5R)-5-(2,4-dioxo-3,4-dihydropyrimidin-1(2H)-yl)-4-fluoro-3-hydroxy-4-methyltetrahydrofuran-2-yl)methoxy)(phenoxy)phosphoryl)amino)propanoate, reference compound], in series [1], the “AUCinf % GLSM Ratio (SOF + Compound I/SOF) (90% CI)” value (shortened to “AUCinf % GLSM Ratio … (90% CI)”) was 237.77 (214.27, 263.85) %; the “AUClast % GLSM Ratio (SOF + Compound I/SOF) (90% CI)” value (from here on “AUClast % GLSM Ratio … (90% CI)”) is reported as 238.10 (214.62, 264.16) %; the “Cmax % GLSM Ratio (SOF + Compound I/SOF) (90% CI)” value is 181.06 (149.43, 219.38) %; the “increase in AUC when SOF coadministered with Compound I” value is on record as approximately 2.4 fold. Moreover, in series [1], the “increase in Cmax when SOF coadministered with Compound I” value is listed as “approximately 1.8 fold”. The AUCinf in series [1] (setting [11]) was 1159.50 ng·h/mL. In [1] (setting [12]), the total exposure AUC(0-inf) came out at 2760 ng·h/mL and the area under the curve AUC(0-t) is 2750 ng·h/mL. Besides, the highest concentration (Cmax) in series [1] (human, in vivo, SOF 400 mg + Compound I 150 mg, GLSM, read-out: Cmax) came out at 1590 ng/mL. In [1] (human, in vivo, SOF 400 mg single dose alone, GLSM), this molecule came in with an exposure AUC(0-t) of 1150 ng·h/mL. Besides, in series [1] (human, in vivo, SOF 400 mg single dose alone, GLSM, read-out: Cmax), the peak concentration (Cmax) was 880 ng/mL. The “fraction of the maximal HCV RNA change from baseline achievable, associated with mean major metabolite AUCtau” value in series [2] is reported as “approximately 77%”. Moreover, the “dose proportionality of exposure” value in series [3] is on record as “dose-proportional”. Besides, the “Safety and tolerability across both dose levels” value in series [4] (400 mg vs 200 mg once daily) is given as “similar”. Also, in [4] (genotype 1 HCV infected patients, with additional HCV therapeutics for 24 weeks), the “SVR rates, 400 mg once daily compared to 200 mg once daily” value is “higher SVR rates”. In addition, in [5], the SVR24 was determined as 100%.
`C[C@H](NP(=O)(O)OC[C@H]1O[C@@H](n2ccc(=O)[nH]c2=O)[C@](C)(F)[C@@H]1O)C(=O)O` [SOF metabolite I]: in series [1], the “AUCinf % GLSM Ratio … (90% CI)” value is listed as 179.42 (165.03, 195.06) %; the “AUClast % GLSM Ratio … (90% CI)” value is recorded as 182.35 (167.52, 198.50) %; the “Cmax % GLSM Ratio (SOF + Compound I/SOF) (90% CI)” value is on record as 161.68 (145.27, 179.94) %; the “increase in AUC when SOF coadministered with Compound I” value is reported as “approximately 1.8 fold”. The “increase in Cmax when SOF coadministered with Compound I” value in series [1] was “approximately 1.6 fold”. In series [1] (setting [13]), the AUCinf was determined as 3455.70 ng·h/mL, the AUClast turned out to be 3394.32 ng·h/mL and the highest concentration (Cmax) was 736.88 ng/mL. In addition, in series [1] (setting [11]), the AUCinf turned out to be 1926.09 ng·h/mL, the AUClast worked out at 1861.41 ng·h/mL and the Cmax was found to be 455.77 ng/mL.
As to `C[C@@]1(F)[C@H](O)[C@@H](CO)O[C@H]1n1ccc(=O)[nH]c1=O` [SOF metabolite II], in [1], the “AUCinf % GLSM Ratio … (90% CI)” value is 116.32 (110.99, 121.90) %; the “AUClast % GLSM Ratio … (90% CI)” value is on record as 112.86 (107.90, 118.05) %; the “Cmax % GLSM Ratio (SOF + Compound I/SOF) (90% CI)” value is listed as 64.17 (58.45, 70.44) %. In [1] (setting [13]), the AUCinf is given as 13,774.96 ng · h/mL, the AUClast is reported as 12,610.86 ng · h/mL and the Cmax came out at 693.62 ng/mL. In series [1] (setting [11]), the AUCinf is recorded as 11,842.52 ng · h/mL, the AUClast was 11,173.87 ng · h/mL and the Cmax came to 1080.97 ng/mL.
The term AUC denotes the area under the concentration-time curve, a measure of exposure. For the molecule `COC[C@H]1C[C@@H](c2ncc(-c3ccc4c(c3)COc3cc5c(ccc6nc([C@@H]7CC[C@H](C)N7C(=O)[C@@H](NC(=O)OC)C(C)C)[nH]c65)cc3-4)[nH]2)N(C(=O)[C@H](NC(=O)OC)c2ccccc2)C1` [Compound I, methyl {(2S)-1-[(2S,5S)-2-(9-{2-[(2S,4S)-1-{(2R)-2-[(methoxycarbonyl)amino]-2-phenylacetyl}-4-(methoxymethyl)pyrrolidin-2-yl]-1H-imidazol-5-yl}-1,11-dihydroisochromeno[4′,3′ 6,7]naphtho[1,2-d]imidazol-2-yl)-5-methylpyrrolidin-1-yl]-3-methyl-1-oxobutan-2-yl}carbamate], the CL/F is 58,398.0 mL/h in series [6] (5 mg), 19,188.4 mL/h in series [6] (50 mg), 24,617.9 mL/h in series [6] (100 mg) and 53,676.4 mL/h in [6] (450 mg). The Ctau is reported as 101.09 ng/mL in series [1] (Compound I 150 mg multiple doses alone, GLSM) and 118.90 ng/mL in series [1] (setting [13]). The “AUCtau % GLSM Ratio (SOF + Compound I/Compound I) (90% CI)” value in series [1] (setting [14]) was 111.71 (107.54, 116.04) %. Besides, the “Cmax % GLSM Ratio (SOF + Compound I/Compound I) (90% CI)” value in series [1] (setting [14]) is 105.94 (101.86, 110.20) %. Besides, in series [1] (setting [14]), the “Ctau % GLSM Ratio (SOF + Compound I/Compound I) (90% CI)” value is listed as 117.61 (111.94, 123.57) %. The exposure (AUC) in [1] (human, plasma, oral, Compound I 150 mg multiple doses alone, GLSM) came out at 7280 ng·h/mL; in series [1] (human, plasma, oral, SOF 400 mg + Compound I 150 mg, GLSM), 8140 ng·h/mL. Also, the Cmax in [1] (human, plasma, oral, Compound I 150 mg multiple doses alone, GLSM, read-out: Cmax) was found to be 932 ng/mL; in series [1] (human, plasma, oral, SOF 400 mg + Compound I 150 mg, GLSM, read-out: Cmax), 988 ng/mL. Further, the “AUCinf % GLSM Ratio (Fed/Fasted)” value in series [7] (HFM) is given as 86.30%; in [7] (Light Breakfast) it was 124.72%. Besides, the entries for the “AUClast % GLSM Ratio (Fed/Fasted)” value in series [7] (HFM) and in [7] (Light Breakfast) were 86.02% and 124.84%, respectively. For the same molecule, the “Cmax % GLSM Ratio (Fed/Fasted)” value is 75.02% in series [7] (HFM) and 134.89% in series [7] (Light Breakfast). Moreover, the “activity against genotype 1-6 HCV” value in [8] was “potent activity”. In addition, the “solubility in feed solvent” value in series [9] is recorded as “excellent solubility”. Besides, in series [10], the chemical stability entry was “good chemical stability”.
